One substance from patent US20250228887A1, “OPHTHALMIC COMPOSITION” (ROHTO PHARMACEUTICAL CO., LTD., priority 2021, published 2025) can be followed below.

In experiment [1] the test system is human corneal epithelial cell line HCE-T cells. Description: Cell dry test (first invention, Test Example 13). The format is cell-based. To be noted: 8, 13, 14 vs test solution 4; 11, 12 vs test solution 5; 1% vs 0.5%. The procedure:
Ophthalmic compositions were prepared according to a general method using the formulations shown in Table 12 and used as test solutions. The units of the components in Table 12 are w/v % unless specified in the table. 100 μL of human corneal epithelial cell line HCE-T cells at a concentration of 1×10^5 cells/mL was seeded in each well in a 96-well plate (commercially available from Corning Inc.), and cultured in a CO2 incubator set at 37° C., a humidity of 90%, and a concentration of 5% CO2 until the cells became confluent. […] After each ophthalmic composition was removed by suction from each well, drought stress was applied by leaving it in a clean bench for 20 minutes, and the number of viable cells was then evaluated. In order to evaluate the number of viable cells, 10 μL of a cell number measurement reagent (Cell counting kit-8, commercially available from Dojindo Molecular Technologies, Inc.) per 100 μL of the medium was put into each well, and culturing was performed under conditions of 37° C., 5% CO2, and a humidity of 90% for 2 to 3 hours, and measurement was then performed using an absorbance meter (commercially available from MOLECULAR DEVICES) at 450 nm. Here, the higher the value of the absorbance, the greater the number of viable cells.

In experiment [2] the test system is rabbits. The experiment is described as follows: Drought stress test using rabbits (first invention, Test Example 1). The format is in vivo, Japanese white rabbits. To be noted: 0.5 w/v % or 3 w/v % in saline, 100 μL per eye, eyelids open 3 hours; compared with Mw about 25,000; **p<0.01 Tukey; FIG. 1. The procedure:
Each test substance was prepared by dissolving sodium chondroitin sulfate having a weight-average-molecular weight of about 25,000 (commercially available from Maruha Nichiro Corporation; over-the-counter sodium chondroitin sulfate) or sodium chondroitin sulfate having a weight-average-molecular weight of about 56,000 (commercially available from Seikagaku Corporation; Grade N-K) so that the content was 0.5 w/v % or 3 w/v %, respectively, in a saline (commercially available from Otsuka Pharmaceutical Factory, Inc.).
According to the method used by Nagano et al. (New Ophthalmology, 13(2), 267-270, 1996), rabbits divided into 5 groups (n=5) (Japanese white rabbits (commercially available from Kitayama Labes Co. Ltd.)) were subjected to general anesthesia, and then gloves with ring-shaped fingers were put on their left and right eyeballs and the eyelids were forcibly opened. […] After the cornea was removed from the ocular surface, the methylene blue dye was extracted, and the absorbance was measured using a microplate reader Multiskan GO (commercially available from Thermo Fisher Scientific) at 660 nm. Here, eye dryness caused corneal damage, and increased the amount of dye adhered to the cornea surface, and thus it could be evaluated that the higher the absorbance value, the drier the eyes were.

Regarding sodium chondroitin sulfate, the “number of viable cells after drought stress, comparison in words” value in experiment [1] is given as “the number of viable cells significantly increased at 1%”. Moreover, the “absorbance at 660 nm of methylene blue dye extracted from the cornea (corneal damage caused by eye dryness), in words” value in experiment [2] is “significantly lower absorbance”.
